Measurements: paper PMC8795738, “The Tarantula Venom Peptide Eo1a Binds to the Domain II S3-S4 Extracellular Loop of Voltage-Gated Sodium Channel NaV1.8 to Enhance Activation” (Frontiers in Pharmacology, 2022)
Where a SMILES comes first, the peptide text is derived from it. Bridges are numbered along the chain shown (N, C = ends).

What was measured:
[1] = tested on: NaV1.3; experiment: I-V protocol, whole-cell patch-clamp, NaV1.3; format: cell-based, human; conditions: Eo1a 10 μM
Procedure: (§1) Human Embryonic Kidney (HEK) 293 cells stably expressing human NaV1.1 to NaV1.7/β1 (SB Drug Discovery, Glasgow, United Kingdom), Chinese Hamster Ovary (CHO) cells stably expressing human NaV1.8/β3 in a tetracycline-inducible system (ChanTest, Cleveland, OH, United States), and HEK293 cells stably expressing rat transient receptor potential vanilloid 1 (TRPV1) were cultured as previously described ([Yin et al., 2020]). Human KV2.1 and NaV1.7 mutants were transiently transfected into HEK293 cells stably expressing β1/β2 using Lipofectamine 2000 (Thermo Fisher Scientific, Scoresby, VIC, Australia) and used for patch-clamp experiments 48 h after transfection. Cells were grown in an incubator at 37°C with 5% CO2 and passaged every 3–4 d (at 70–80% confluency) using TrypLE Express (Thermo Fisher Scientific).
(§2) Automated whole-cell patch-clamp recordings were performed with a QPatch-16 automated electrophysiology platform (Sophion Bioscience, Ballerup, Denmark) using single-hole (QPlate 16 with a standard resistance of 2 ± 0.4 MΩ) or multi-hole (QPlate 16X with a standard resistance 0.2 ± 0.04 MΩ, NaV1.8 only) as previously described ([McMahon et al., 2020]).
(§3) The extracellular solution (ECS) consisted of (in mM) 145 NaCl (replaced with 70 choline chloride for NaV1.4, NaV1.5 and NaV1.7), 4 KCl, 2 CaCl2, 1 MgCl2, 10 HEPES, and 10 glucose, pH to 7.4 with NaOH (adjusted to 305 mOsm/L with sucrose). For NaV recordings the intracellular solution (ICS) consisted of (in mM) 140 CsF, 1 EGTA, 5 CsOH, 10 HEPES, and 10 NaCl, pH to 7.3 with CsOH (adjusted to 320 mOsm/L with sucrose). For KV2.1 recordings the ICS consisted of (in mM) 50 KCl, 60 KF, 10 EGTA, 10 HEPES, 10 NaCl pH to 7.3 with KOH (adjusted to 320 mOsm/L with sucrose). […]
(§4) The time constant of fast inactivation (τ) was computed by fitting the current decay traces with a single exponential function using QPatch Assay Software 5.6 (Sophion). The time to peak was calculated from pulse onset to peak inward current using QPatch Assay Software 5.6 (Sophion).

[2] = tested on: NaV1.5; experiment: I-V protocol, whole-cell patch-clamp, NaV1.5; format: cell-based, human; conditions: Eo1a 10 μM
Procedure: as §1, §2
The extracellular solution (ECS) consisted of (in mM) 145 NaCl (replaced with 70 choline chloride for NaV1.4, NaV1.5 and NaV1.7), 4 KCl, 2 CaCl2, 1 MgCl2, 10 HEPES, and 10 glucose, pH to 7.4 with NaOH (adjusted to 305 mOsm/L with sucrose). For NaV recordings the intracellular solution (ICS) consisted of (in mM) 140 CsF, 1 EGTA, 5 CsOH, 10 HEPES, and 10 NaCl, pH to 7.3 with CsOH (adjusted to 320 mOsm/L with sucrose). For KV2.1 recordings the ICS consisted of (in mM) 50 KCl, 60 KF, 10 EGTA, 10 HEPES, 10 NaCl pH to 7.3 with KOH (adjusted to 320 mOsm/L with sucrose). TTX (1 μM) was added to the ECS for NaV1.8 recordings to inhibit background endogenous TTX sensitive current in CHO cells.
I-V curves were obtained with a holding potential of −90 mV followed by a series of 500 ms step pulses that ranged from −110 to +80 mV in 5-mV increments (repetition interval 5 s) before and after 5 min incubation with Eo1a (10 μM). Conductance-voltage (G-V) curves were obtained by calculating the conductance (G) at each voltage (V) using equation G = I/(V − V rev ), where V rev is the reversal potential. G-V curves were fitted with a Boltzmann equation. […]
as §4

[3] = tested on: NaV1.6; experiment: I-V protocol, whole-cell patch-clamp, NaV1.6; format: cell-based, human; conditions: Eo1a 10 μM
Procedure: as §1, §2, §3, §4

[4] = target: NaV1.8 (Homo sapiens, UniProt Q9Y5Y9); experiment: Concentration-response of NaV1.8 peak current, QPatch whole-cell patch-clamp; format: cell-based; conditions: CHO cells, hNaV1.8/β3, holding −90 mV, 50 ms pulse to +10 mV every 20 s, 5 min incubation, ECS with 0.1% BSA, 1 μM TTX, pH 7.4, four-parameter Hill fit, mean ± SEM, n = 7 cells, read-out: EC50 for increase in NaV1.8 peak current
NaV1.8, sequence (Q9Y5Y9 whole entry): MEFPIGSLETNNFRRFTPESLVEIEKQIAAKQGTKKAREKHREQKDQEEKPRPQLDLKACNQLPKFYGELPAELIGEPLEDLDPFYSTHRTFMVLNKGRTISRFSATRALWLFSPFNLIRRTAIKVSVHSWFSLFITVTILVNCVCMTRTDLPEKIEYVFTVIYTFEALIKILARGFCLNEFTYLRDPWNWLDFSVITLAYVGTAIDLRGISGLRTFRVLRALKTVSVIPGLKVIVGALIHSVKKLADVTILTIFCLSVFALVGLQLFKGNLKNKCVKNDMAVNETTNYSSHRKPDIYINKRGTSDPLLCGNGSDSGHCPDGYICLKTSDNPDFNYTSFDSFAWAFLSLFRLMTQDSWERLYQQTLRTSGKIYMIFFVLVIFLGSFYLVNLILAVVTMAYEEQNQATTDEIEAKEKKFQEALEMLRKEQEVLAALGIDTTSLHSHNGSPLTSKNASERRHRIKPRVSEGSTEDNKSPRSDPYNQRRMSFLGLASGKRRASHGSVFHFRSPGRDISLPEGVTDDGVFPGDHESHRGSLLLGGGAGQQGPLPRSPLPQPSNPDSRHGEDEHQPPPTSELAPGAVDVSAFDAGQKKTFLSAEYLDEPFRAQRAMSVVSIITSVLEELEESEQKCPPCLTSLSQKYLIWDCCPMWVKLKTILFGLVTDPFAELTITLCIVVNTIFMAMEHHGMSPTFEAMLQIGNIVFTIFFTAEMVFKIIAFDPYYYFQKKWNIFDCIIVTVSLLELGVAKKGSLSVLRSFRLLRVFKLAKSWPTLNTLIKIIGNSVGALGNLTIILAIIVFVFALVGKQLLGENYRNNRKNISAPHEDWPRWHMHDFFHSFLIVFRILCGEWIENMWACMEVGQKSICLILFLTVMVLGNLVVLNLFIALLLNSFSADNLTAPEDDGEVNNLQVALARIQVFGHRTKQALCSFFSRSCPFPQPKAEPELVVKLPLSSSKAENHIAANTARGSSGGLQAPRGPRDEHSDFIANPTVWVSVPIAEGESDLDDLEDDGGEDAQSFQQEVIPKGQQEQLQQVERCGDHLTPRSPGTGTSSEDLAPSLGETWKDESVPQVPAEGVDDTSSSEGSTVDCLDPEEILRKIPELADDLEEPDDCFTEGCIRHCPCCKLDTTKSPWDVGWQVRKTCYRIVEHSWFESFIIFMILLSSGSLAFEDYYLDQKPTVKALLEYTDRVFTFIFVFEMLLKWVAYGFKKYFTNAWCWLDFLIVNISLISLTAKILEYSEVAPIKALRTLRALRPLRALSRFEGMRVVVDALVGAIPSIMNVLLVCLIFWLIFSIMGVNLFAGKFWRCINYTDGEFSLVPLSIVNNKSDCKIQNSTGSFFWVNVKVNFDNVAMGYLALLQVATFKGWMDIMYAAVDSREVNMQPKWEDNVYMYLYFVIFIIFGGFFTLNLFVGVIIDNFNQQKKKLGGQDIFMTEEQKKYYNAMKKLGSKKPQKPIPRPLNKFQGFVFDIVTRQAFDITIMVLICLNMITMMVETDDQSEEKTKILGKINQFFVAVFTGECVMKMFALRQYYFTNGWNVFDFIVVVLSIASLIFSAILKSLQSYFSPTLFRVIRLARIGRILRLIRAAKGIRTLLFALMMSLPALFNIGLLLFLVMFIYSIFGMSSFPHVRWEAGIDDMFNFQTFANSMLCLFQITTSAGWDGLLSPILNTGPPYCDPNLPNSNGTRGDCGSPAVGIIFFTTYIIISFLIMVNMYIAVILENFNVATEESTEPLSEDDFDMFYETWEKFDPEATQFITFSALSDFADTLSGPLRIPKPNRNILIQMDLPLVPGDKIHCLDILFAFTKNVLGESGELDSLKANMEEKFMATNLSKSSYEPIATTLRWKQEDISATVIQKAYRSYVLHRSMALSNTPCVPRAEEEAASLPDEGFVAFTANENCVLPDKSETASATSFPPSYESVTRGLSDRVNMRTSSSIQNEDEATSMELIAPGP
Procedure: as §1
as §2, with “2020]). […]” for “2020]).”

[5] = tested on: DRG neurons; experiment: Calcium imaging of dorsal root ganglion (DRG) neurons; format: cell-based, mouse
Text: Adult male C57BL/6J mice aged 4–8 weeks were sourced from the Animal Resource Centre (Canning Vale, Western Australia). Adult male NaV1.8 knockouts ([Nassar et al., 2004]) (aged 8–11 weeks) and wild-type littermates were housed and tested at University College London. Animals were housed in groups of three or four per cage under 12-h light-dark cycles and were provided with standard rodent chow and water ad libitum. Ethical approval for experiments involving animals was obtained from The University of Queensland animal ethics committee (TRI/IMB/093/17, IMB/PACE/421/18) and the United Kingdom Home Office (project licence PPL 70/7382). All experiments were conducted in accordance with the International Association for the Study of Pain Guidelines for the Use of Animals in Research and the Australian Code of Practice for the Care and Use of Animals for Scientific Purposes, 8th edition (2013).
For Ca^2+ imaging experiments, DRG neurons were isolated from 4 week old male C57BL/6J mice as previously described ([Robinson et al., 2018]). DRG neurons were dissociated and plated in 96-well poly-D-lysine-coated culture plates grown in Dulbecco’s modified Eagle’s medium supplemented with 10% fetal bovine serum (FBS) and penicillin/streptomycin and cultured for 24 h at 37°C with 5% CO2. Dissociated DRG neurons were loaded with Fluo-4 AM calcium indicator (5 μM) for 1 h, then washed with Hanks’ balanced salt solution (HBSS) containing 20 mM HEPES. Fluorescence was measured using a Nikon Ti-E Deconvolution inverted microscope, in conjunction with a Lumencor Spectra LED light source (excitation, 485 nm; emission, 521 nm). Images were acquired at 1 frame per s using a 20× objective. […] Only excitable cells responding to KCl were included for analysis. Cells were classified as responders if they had at least a 1.5-fold increase in fluorescence over baseline.

Q: `CC[C@H](C)[C@@H]1NC(=O)[C@H](CCCNC(=N)N)NC(=O)[C@@H]2CSSC[C@@H]3NC(=O)CNC(=O)CNC(=O)[C@H](CC(C)C)NC(=O)[C@H](Cc4ccccc4)NC(=O)[C@H](Cc4c[nH]c5ccccc45)NC(=O)[C@H](CCCNC(=N)N)NC(=O)[C@@H](NC(=O)[C@@H](N)CC(=O)O)CSSC[C@H](NC(=O)[C@H](CSSC[C@@H](C(=O)N[C@@H](C)C(=O)N[C@@H](Cc4c[nH]c5ccccc45)C(=O)N[C@@H](CC(=O)O)C(=O)NCC(=O)N[C@H](C(=O)N[C@@H](Cc4ccccc4)C(N)=O)[C@@H](C)O)NC(=O)[C@H](Cc4ccc(O)cc4)NC(=O)[C@H](CCCCN)NC(=O)[C@H]([C@@H](C)CC)NC(=O)[C@H](Cc4ccc(O)cc4)NC(=O)CNC(=O)[C@H](CC(=O)O)NC1=O)NC(=O)[C@H](CC(=O)O)NC(=O)[C@H](CO)NC(=O)[C@H](CC(=O)O)NC(=O)[C@H](CCCCN)NC(=O)[C@H](CO)NC3=O)C(=O)N[C@@H](CCCCN)C(=O)N[C@@H](Cc1c[nH]cn1)C(=O)N[C@@H](CC(C)C)C(=O)N[C@@H](C)C(=O)N2` [Eo1a] (H-DCRWFLGGCSKDSDCCKHLACRIDGYIKYCAWDGTF-NH2; disulfide 2-16, 9-21, 15-30 (inferred); N-terminus assumed) was tested. Which V1/2 activation ([1]; 5 min, control −20.4 ± 2.2 mV, *p < 0.05, mean ± SEM, n = 4–6) did it give?
A: The V1/2 activation was −27.9 mV.

Q: What about the “V1/2 inactivation (steady-state fast inactivation)” value (shortened to “V1/2 inactivation”) ([1]; 5 min, control −63.2 ± 1.0 mV, mean ± SEM, n = 4–6) of the same molecule?
A: Its value is −63.0 ± 1.5.

Q: And the “effect on inactivation kinetics” value ([1]; test pulse −20 mV)?
A: Its value is “minimal effect”.

Q: And the “peak current I/I0” value ([2]; 5 min, peak from I-V protocol at any voltage, normalised to buffer control, HEK293 hNaV1.5/β1, mean ± SEM, n = 4–6 cells)?
A: The value was 0.41 ± 0.05.

Q: What about the V1/2 activation ([2]; NaV1.5, 5 min, control −30.3 ± 4.0 mV, mean ± SEM, n = 4–6) of the same molecule?
A: Its V1/2 activation is −27.1 ± 2.2 mV.

Q: And the “V1/2 inactivation” value ([2]; NaV1.5, 5 min, control −70.2 ± 0.9 mV, mean ± SEM, n = 4–6)?
A: Its value is −75.5 ± 1.0.

Q: And the “effect on inactivation kinetics” value ([2]; NaV1.5, test pulse −20 mV)?
A: The value was “minimal effect”.

Q: And the V1/2 activation ([3]; 5 min, control −22.7 ± 1.0 mV, *p < 0.05, mean ± SEM, n = 4–6)?
A: The V1/2 activation was −35.0 mV.

Q: And the “V1/2 inactivation” value ([3]; 5 min, control −56.3 ± 1.1 mV, mean ± SEM, n = 4–6)?
A: Its value is −56.2 ± 1.0.

Q: What about the “effect on fast inactivation” value ([3]; test pulse −20 mV) of the same molecule?
A: Its value is “delayed fast-inactivation”.

Q: What about the EC50 [4] of the same molecule?
A: Its EC50 is 894 ± 146 nM.

Q: And the “neurons activated in the presence of TTX” value ([5]; Eo1a 10 μM + TTX 1 μM, dissociated DRG neurons of C57BL/6J mice, Fluo-4, mean ± SEM of 2–3 wells)?
A: Its value is 30 ± 2%.

Q: And the “neurons with Ca2+ influx (activated)” value ([5]; Eo1a 10 μM, dissociated DRG neurons of C57BL/6J mice, Fluo-4, responder = at least 1.5-fold fluorescence increase, without TTX, mean ± SEM of 2–3 wells)?
A: Its value is 44 ± 3%.

Q: What about the “size of activated neurons” value ([5]; Eo1a 10 μM, n = 473 alone, n = 317 with TTX, distribution did not change with TTX) of the same molecule?
A: The value was “smaller size”.
